The subject of one assay is Bacteroides fragilis. Briefly: In vitro antibacterial activity against Bacteroides fragilis strain ATCC 25285. Format: functional.
Another assay relates to Clostridium perfringens. Nature of the assay: In vitro antibacterial activity against Clostridium perfringens strain ATCC 13124. Format: functional.
The subject of the next assay is Enterococcus faecalis. Briefly: In vitro antibacterial activity against Enterococcus faecalis strain ATCC 29212. Format: functional.
The subject of the next assay is Enterococcus faecium. Nature of the assay: In vitro antibacterial activity against Enterococcus faecium strain UC12712. Format: functional.
In another assay the test system is Escherichia coli. Nature of the assay: In vitro antibacterial activity against Escherichia coli strain ATCC 25922. The assay is classed as functional.
Another assay concerns Klebsiella pneumoniae. Briefly: In vitro antibacterial activity against Klebsiella pneumoniae strain UC 12081. Format: functional.
Assay [1] concerns Mus musculus. Nature of the assay: In vivo antibacterial activity against Enterococcus faecalis strain UC 12379 administered perorally in mice. The following applies: po. Format: functional.
For assay [2], the system named is Mus musculus. Briefly: In vivo antibacterial activity against Enterococcus faecium strain UC 15090 administered perorally in mice. Format: functional. The following applies: po.
In assay [3] the test system is Mus musculus. Briefly: In vivo antibacterial activity against Staphylococcus aures strain UC 9213 administered perorally in mice. Format: functional. The following applies: po.
Assay [4] concerns Mus musculus. Nature of the assay: (§1) In vivo antibacterial activity against Staphylococcus aures strain UC 9213 administered subcutaneously in mice. The following applies: sc. Format: functional.
For assay [5], the system named is Mycobacterium tuberculosis. Briefly: In vitro antibacterial activity against Mycobacterium tuberculosis strain H37Rv. The assay is classed as functional.
In a further assay the test system is Pseudomonas aeruginosa. Nature of the assay: In vitro antibacterial activity against Pseudomonas aeruginosa strain ATCC 27853. Format: functional.
The subject of assay [6] is Staphylococcus aureus. Nature of the assay: In vitro antibacterial activity against Staphylococcus aures strain ATCC 29213. Format: functional.
Assay [7] concerns Staphylococcus aureus. Briefly: In vitro antibacterial activity against Staphylococcus aures strain UC 9213. The assay is classed as functional.
In assay [8] the test system is Staphylococcus aureus. Nature of the assay: In vitro antibacterial activity against Staphylococcus aures strain UC12673. Format: functional.
A further assay deals with Streptococcus pneumoniae. Briefly: In vitro antibacterial activity against Streptococcus pneumoniae strain UC 9912. The assay is classed as functional.
The subject of another assay is Streptococcus pyogenes. Briefly: In vitro antibacterial activity against Streptococcus pyogenes strain UC 152. The assay is classed as functional.
The subject of assay [9] is Staphylococcus epidermidis. Nature of the assay: In vitro antibacterial activity against Staphylococcus epidermis strain UC 30031. Format: functional.
Assay [10] deals with Mus musculus. Briefly: In vivo antibacterial activity against Enterococcus faecalis strain UC 12379 administered subcutaneously in mice. The following applies: sc. Format: functional.
For assay [11], the system named is Mus musculus. Nature of the assay: In vivo antibacterial activity against Enterococcus faecium strain UC 15090 administered subcutaneously in mice. The assay is classed as functional. The following applies: sc.
The subject of assay [12] is Mus musculus. The assay is described as §1. The assay is classed as functional. The following applies: sc. This is another data set of the same source.
Assay [13] deals with Mycobacterium tuberculosis. Briefly: In vitro antibacterial activity against Mycobacterium tuberculosis strain H37Rv; f means comparative control value for isoniazid was 0.20 ug/mL. The assay is classed as functional, organism-based.

Converted amounts (≈) assume the structure as drawn.

On to `CC(=O)NC[C@H]1CN(c2ccc(N3CCN(C(=O)CO)CC3)c(F)c2)C(=O)O1` [EPEREZOLID], for which the minimum inhibitory concentration (MIC) was 1 µg/mL (≈ 2.54 µM) with Bacteroides fragilis; 1 µg/mL (≈ 2.54 µM) against Clostridium perfringens; 2 µg/mL (≈ 5.07 µM) in the assay on Enterococcus faecalis; 1 µg/mL (≈ 2.54 µM) in the assay with Enterococcus faecium; above 64 µg/mL with Escherichia coli; above 64 µg/mL against Klebsiella pneumoniae. For the same compound, the minimum inhibitory concentration (MIC) in assay [5] was below 0.125 µg/mL; against Pseudomonas aeruginosa, above 64 µg/mL; against Staphylococcus aureus [6] it was 4 µg/mL (≈ 10.1 µM); against Staphylococcus aureus [7], 4 µg/mL (≈ 10.1 µM); against Staphylococcus aureus [8], 2 µg/mL (≈ 5.07 µM); in the assay with Streptococcus pneumoniae it was 0.5 µg/mL (≈ 1.27 µM). The MIC (against Streptococcus pyogenes; in [9]) was 1 µg/mL (≈ 2.54 µM) each time. The 50% effective dose (ED50) was 1.3 mg/kg with Mus musculus [1], 12.5 mg/kg in the assay with Mus musculus [2], 1.9 mg/kg with Mus musculus [3] and 0.9 mg/kg with Mus musculus [4].

As for `CC(=O)NC[C@H]1CN(c2ccc(N3CCOCC3)c(F)c2)C(=O)O1` [LINEZOLID], the MIC was 1 µg/mL (≈ 2.96 µM) in the assay with Bacteroides fragilis; 1 µg/mL (≈ 2.96 µM) in the assay on Clostridium perfringens; 2 µg/mL (≈ 5.93 µM) against Enterococcus faecium; above 64 µg/mL against Escherichia coli; above 64 µg/mL in the assay on Klebsiella pneumoniae; below 0.125 µg/mL in assay [5]. In addition, the MIC with Pseudomonas aeruginosa is above 64 µg/mL; with Streptococcus pyogenes it was 2 µg/mL (≈ 5.93 µM); in assay [9], 1 µg/mL (≈ 2.96 µM). Further, the median effective dose (ED50) is 10 mg/kg in the assay on Mus musculus [1], 24 mg/kg in the assay on Mus musculus [2], 5.6 mg/kg in the assay with Mus musculus [3] and 2 mg/kg in the assay on Mus musculus [4].

Regarding `CN[C@H](CC(C)C)C(=O)N[C@H]1C(=O)N[C@@H](CC(N)=O)C(=O)N[C@H]2C(=O)N[C@H]3C(=O)N[C@H](C(=O)N[C@H](C(=O)O)c4cc(O)cc(O)c4-c4cc3ccc4O)[C@H](O)c3ccc(c(Cl)c3)Oc3cc2cc(c3O[C@@H]2O[C@H](CO)[C@@H](O)[C@H](O)[C@H]2O[C@H]2C[C@](C)(N)[C@H](O)[C@H](C)O2)Oc2ccc(cc2Cl)[C@H]1O` [VANCOMYCIN], the MIC against Bacteroides fragilis was above 16 µg/mL; in the assay on Clostridium perfringens, 1 µg/mL (≈ 0.69 µM); in the assay with Escherichia coli, above 64 µg/mL; with Klebsiella pneumoniae it was above 64 µg/mL; in assay [13], “Comparitive control valie for isonazid was 0.20 ug/ml”; against Pseudomonas aeruginosa, above 64 µg/mL. The same compound had a minimal inhibitory concentration (MIC) against Streptococcus pneumoniae of 0.5 µg/mL (≈ 0.345 µM). Further, the median effective dose (ED50) with Mus musculus [10] was below 0.6 mg/kg; in the assay on Mus musculus [11], above 100 mg/kg; in the assay with Mus musculus [4], 3.9 mg/kg; in the assay with Mus musculus [12], 3.9 mg/kg.

These data come from ChEMBL document CHEMBL1129033, “Synthesis and antibacterial activity of U-100592 and U-100766, two oxazolidinone antibacterial agents for the potential treatment of multidrug-resistant gram-positive bacterial infections” (1996).
